# Patent US20130324556A1, “Protease Activated Receptor 2 (PAR2) Antagonists” (priority 2011, published 2013)
# Where a name gives a salt, the structure may show the parent alone.
# Molecular target: T1, human PAR2 receptor (Homo sapiens, UniProt P55085)
# T1 construct: expressed in transfected cells; host or cells: 1321N1 cells
# T1 sequence (P55085 26-397): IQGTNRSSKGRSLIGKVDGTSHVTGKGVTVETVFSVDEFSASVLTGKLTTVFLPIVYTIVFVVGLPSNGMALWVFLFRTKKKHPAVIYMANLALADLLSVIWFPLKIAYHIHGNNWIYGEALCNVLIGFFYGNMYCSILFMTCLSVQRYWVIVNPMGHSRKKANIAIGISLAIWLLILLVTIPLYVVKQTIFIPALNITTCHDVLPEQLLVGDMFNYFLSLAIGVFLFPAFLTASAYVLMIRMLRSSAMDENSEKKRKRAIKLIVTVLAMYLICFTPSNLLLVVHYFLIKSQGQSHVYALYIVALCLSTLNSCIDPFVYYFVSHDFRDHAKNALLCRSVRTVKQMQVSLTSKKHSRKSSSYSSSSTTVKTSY
# Experiment: PAR2 antagonist activity, calcium flux FLIPR assay (trypsin challenge)
# Type: cell-based
# Conditions: 1321N1 cells transfected with the human PAR2 receptor; trypsin (EC50 concentration) challenge; calcium flux FLIPR; read-out: PAR2 IC50
# Procedure: The PAR2 receptor couples through the Gq signaling pathway and results in activation of calcium mobilization. The functional activity of test compounds was routinely tested by measuring the ability of compounds to antagonize PAR2 (trypsin challenge) activity in a dose dependent manner, in 1321N1 cells transfected with the human PAR2 receptor, using a calcium flux Fluorescent Imaging Plate Reader FLIPR assay.
# Briefly, test compounds were dissolved in DMSO to a concentration of 20 mM and stored in matrix screenmate racks. […] The compounds were then transferred to 384-well assay plates ready for use. […] The assay buffer used was HBSS buffer supplemented with 20 mM HEPES and 0.1% BSA (protease free), pH7.4. The loading/wash buffers were the same as the assay buffer.
# Sub-cultivations were performed every 2-3 d. […] After washing, the cells were loaded with Fluo-4 AM dye (Molecular probes) at 2 μM containing 0.48 μg/mL pluronic acid for 60 min at 37° C. under 5% CO2.
# A combined agonist/antagonist protocol was used to measure changes in intracellular calcium concentration. Compound (antagonist) was added to the cell plate using a Fluorometric Imaging Plate Reader (FLIPR) (Molecular Devices, Sunnyvale, Calif., USA). Basal fluorescence was recorded every second for 10 seconds prior to compound addition (10 μl) and fluorescence recorded every second for 1 min then every 6 seconds for a further 1 min. Trypsin (EC50 concentration) was then added using the FLIPR and fluorescence recorded as described above. Curve-fitting and parameter estimation were carried out using GraphPad Prism 4.0 (GraphPad Software Inc., San Diego, Calif.).
row,SMILES,IC50 [µM]
1,"CN(Cc1ccc(C(=N)N)cc1)C(=O)N1CCC(Cc2ccccc2)CC1 [Example 43, 4-Benzyl-N-[(4-carbamimidoylphenyl)methyl]-N-methylpiperidine-1-carboxamide hydrochloride]",5 to 20
2,"NCc1ccc(CNC(=O)N2CCC(C(O)c3ccc(F)cc3)CC2)cc1 (centres unmarked) [Example 19, N-{[4-(Aminomethyl)phen-yl]methyl}-4-[(4-fluorophenyl)(hydroxy)meth-yl] piperidine-1-carboxamide]",5 to 20
3,"COc1cccc(CC2CCN(C(=O)NCc3ccc(CN)cc3)CC2)c1 [Example 2, 2,2,2-Trifluoroacetic acid; N-{[4-(aminomethyl)phenyl]methyl}-4-[(3-methoxyphenyl)methyl] piperidine-1-carboxamide]",20 to 50
4,"NCc1ccc(CNC(=O)N2CCC(Oc3cccc(Cl)c3)CC2)cc1 [Example 14, N-{[4-(Aminomethyl)phen-yl]methyl}-4-(3-chlorophenoxy)piperidine-1-carboxamide hydrochloride]",20 to 50
5,"NCc1ccc(CNC(=O)N2CCC(Oc3ccccc3Cl)CC2)cc1 [Example 13, N-{[4-(Aminomethyl)phen-yl]methyl}-4-(2-chlorophenoxy)piperidine-1-carboxamide hydrochloride]",20 to 50
6,"N=C(N)c1ccc(CNC(=O)C2CCN(Cc3ccccc3)CC2)cc1 [Example 44, 1-Benzyl-N-[(4-carbamimidoylphenyl)meth-yl]piperidine-4-carboxamide dihydrochloride]",5 to 20
7,"NCc1ccc(CNC(=O)N2CCC(Oc3ccccc3)CC2)cc1 [Example 11, N-{[4-(Aminomethyl)phen-yl]methyl}-4-phenoxypiperidine-1-carboxamide]",20 to 50
8,"N=C(N)c1ccc(CNC(=O)N2CCC(Cc3ccccc3)CC2)cc1 [Example 36, 4-Benzyl-N-[(4-carbamimidoylphenyl)methyl]piperidine-1-carboxamide]",< 5
9,"N=C(N)c1ccc(CNC(=O)N2CCN(Cc3ccccc3)CC2)cc1 [Example 42, 4-Benzyl-N-[(4-carbamimidoylphenyl)meth-yl]piperazine-1-carboxamide dihydrochloride]",< 5
10,"O=C(NCc1ccc(C2=NCCN2)cc1)N1CCC(Cc2ccccc2)CC1 [Example 39, 4-Benzyl-N-{[4-(4,5-dihydro-1H-imidazol-2-yl)phenyl]methyl}piperidine-1-carboxamide]",20 to 50
11,"NCc1ccc(CNC(=O)N2CCC(c3nc4ccccc4o3)CC2)cc1 [Example 34, N-{[4-(Aminomethyl)phen-yl]methyl}-4-(1,3-benzoxazol-2-yl)pipe-ridine-1-carboxamide]",< 5
12,"NCc1ccc(CNC(=O)N2CCN(Cc3ccccc3Cl)CC2)cc1 [Example 25, N-{[4-(Aminomethyl)phen-yl]methyl]-4-[(2-chlorophenyl)meth-yl]piperazine-1-carboxamide di-hydrochloride]",5 to 20
13,"NCc1ccc(CNC(=O)N2CCCC(Cc3ccccc3)C2)cc1 (centres unmarked) [Example 21, 2,2,2-Trifluoroacetic acid; N-{[4-(aminomethyl)phenyl]methyl}-3-benzylpiperidine-1-carboxamide]",50 to 100
14,"NCc1ccc(CNC(=O)N2CCC(Cc3ccccc3)C2)cc1 (centres unmarked) [Example 28, N-{[4-(Aminomethyl)phen-yl]methyl}-3-benzylpyrrolidine-1-carboxamide]",20 to 50
15,"O=C(NCc1ccc2c(c1)CNC2)N1CCC(Cc2ccccc2)CC1 [Example 64, 4-Benzyl-N-(2,3-dihydro-1H-isoindol-5-ylmeth-yl)piperidine-1-carboxamide]",5 to 20
16,"O=C(NCc1ccc2nc[nH]c2c1)N1CCC(Cc2ccccc2)C1 (centres unmarked) [Example 60, 2,2,2-Trifluoroacetic acid; N-(1H-1,3-benzodiazol-5-ylmethyl)-3-benzylpyrrolidine-1-carboxamide]",5 to 20
17,"COc1ccc(CC2CCN(C(=O)NCc3ccc4nc[nH]c4c3)CC2)cc1 [Example 56, N-(1H-1,3-Benzodiazol-6-ylmethyl)-4-[(4-methoxyphenyl)methyl] piperidine-1-carboxamide]",20 to 50
18,"N=C(N)c1ccc(CNC(=O)N2CCC(Cc3ccccc3)CC2)cn1 [Example 50, 4-Benzyl-N-[(6-carbam-imidoylpyridin-3-yl)methyl]piperidine-1-carboxamide hydrochloride]",< 5

row,SMILES,IC50 [µM]
1,"NCc1ccc(CNC(=O)N2CCC(Cc3ccccc3)CC2)cc1F [Example 35, N-{[4-(Aminomethyl)-3-fluorophenyl]methyl}-4-benzylpiperidine-1-carboxamide]",< 5
2,"CN(C)C(=N)c1ccc(CNC(=O)N2CCC(Cc3ccccc3)CC2)cc1 [Example 38, 2,2,2-Trifluoroacetic acid; 4-benzyl-N-{[4-(N,N-dimethylcar-bamimidoyl)phen-yl]methyl} piperidine-1-carboxamide]",5 to 20
3,"O=C(NCc1ccc2nn[nH]c2c1)N1CCC(Cc2ccccc2)CC1 [Example 61, N-(1H-1,2,3-Benzotriazol-6-ylmethyl)-4-benzylpiperidine-1-carboxamide]",50 to 100
4,"NCc1ccc(CNC(=O)N2CCC(c3ccccc3)CC2)cc1 [Example 20, N-{[4-(Aminomethyl)phen-yl]methyl}-4-phenylpiperidine-1-carboxamide hydrochloride]",20 to 50
5,"O=C(NCc1ccc2nc[nH]c2c1)N1CCC(c2ccccc2)C1 (centres unmarked) [Example 59, 2,2,2-Trifluoroacetic acid; N-(1H-1,3-benzodiazol-5-ylmethyl)-3-phenylpyrrolidine-1-carboxamide]",5 to 20
6,"NCc1ccc(CNC(=O)C2CCN(Cc3cccc(F)c3)CC2)cc1 [Example 23, N-{[4-(Aminomethyl)phen-yl]methyl}-1-[(3-fluorophenyl)methyl]piper-idine-4-carboxamide]",5 to 20
7,"NCc1cccc(CNC(=O)N2CCC(Cc3ccccc3)CC2)c1 [Example 67, N-{[3-(Aminometh-yl)phen-yl]methyl}-4-benzylpiperidine-1-carboxamide]",50 to 100
8,"CN(Cc1ccc(CN)cc1)C(=O)N1CCC(Cc2ccccc2)CC1 [Example 30, 2,2,2-Trifluoroacetic acid; N-{[4-(aminomethyl)phenyl]methyl}-4-benzyl-N-methylpiperidine-1-carboxamide]",50 to 100
9,"O=C(NCc1ccc2nc[nH]c2c1)N1CCC(Cc2ccncc2)CC1 [Example 57, N-(1H-1,3-Benzodiazol-6-ylmethyl)-4-(pyridin-4-ylmethyl)piperidine-1-carboxamide]",20 to 50
10,"NCc1ccc(CNC(=O)N2CCC(c3ccccc3)C2)cc1 (centres unmarked) [Example 29, 2,2,2-Trifluoroacetic acid; N-{[4-(aminomethyl)phenyl]methyl}-3-phenylpyrrolidine-1-carboxamide]",50 to 100
11,"O=C(NCc1ccc2c(c1)CNC2)N1CCC(Oc2ccc(F)cc2)CC1 [Example 66, N-(2,3-Dihydro-1H-isoindol-5-ylmethyl)-4-(4-fluorophenoxy) piperidine-1-carboxamide hydrochloride]",20 to 50
12,"Cn1cnc2ccc(CNC(=O)N3CCC(Cc4ccccc4)CC3)cc21 [Example 54, 4-Benzyl-N-[(1-methyl-1H-1,3-benzodiazol-6-yl)methyl]piperidine-1-carboxamide]",50 to 100
13,"NCc1ccc(CNC(=O)N2CCC(C(=O)N3CCCCC3)CC2)cc1 [Example 31, N-{[4-(Aminomethyl)phen-yl]methyl}-4-[(piperidin-1-yl)carbon-yl]piperidine-1-carboxamide hydrochloride]",50 to 100
14,"O=C(NCc1ccc2nc[nH]c2c1)N1CCC(Cc2ccccc2)CC1 [Example 52, N-(1H-1,3-Benzodiazol-6-ylmethyl)-4-benzylpiperidine-1-carboxamide]",5 to 20
15,"N=C(N)Nc1ccc(CNC(=O)N2CCC(Cc3ccccc3)CC2)cc1 [Example 63, 2,2,2-Trifluoroacetic acid; 4-benzyl-N-[(4-carbamimidamidophenyl)methyl]piperidine-1-carboxamide]",5 to 20
16,"NCc1ccc(CNC(=O)N2CCC(Cc3ccc(F)cc3)CC2)cc1 [Example 5, N-{[4-(Aminomethyl)phen-yl]methyl}-4-[(4-fluorophenyl)methyl]piper-idine-1-carboxamide hydrochloride]",< 5
17,"NCc1ccc(CNC(=O)N2CCN(C(=O)c3ccccc3)CC2)cc1 [Example 26, 2,2,2-Trifluoroacetic acid; N-{[4-(aminomethyl)phenyl]methyl}-4-benzoylpiperazine-1-carboxamide]",20 to 50
